From publication PMC9268515, “UGT1A1 and UGT1A9 Are Responsible for Phase II Metabolism of Tectorigenin and Irigenin In Vitro” (Molecules, 2022)

Key:
Type in all cases: in vitro ADME
[1] = target: T1, UGT1A3 (Homo sapiens, UniProt P35503); experiment: Recombinant UGT reaction screening, UGT1A3
T1 construct: purchased BD Biosciences (Woburn, MA, USA)
T1 sequence (P35503 29-534): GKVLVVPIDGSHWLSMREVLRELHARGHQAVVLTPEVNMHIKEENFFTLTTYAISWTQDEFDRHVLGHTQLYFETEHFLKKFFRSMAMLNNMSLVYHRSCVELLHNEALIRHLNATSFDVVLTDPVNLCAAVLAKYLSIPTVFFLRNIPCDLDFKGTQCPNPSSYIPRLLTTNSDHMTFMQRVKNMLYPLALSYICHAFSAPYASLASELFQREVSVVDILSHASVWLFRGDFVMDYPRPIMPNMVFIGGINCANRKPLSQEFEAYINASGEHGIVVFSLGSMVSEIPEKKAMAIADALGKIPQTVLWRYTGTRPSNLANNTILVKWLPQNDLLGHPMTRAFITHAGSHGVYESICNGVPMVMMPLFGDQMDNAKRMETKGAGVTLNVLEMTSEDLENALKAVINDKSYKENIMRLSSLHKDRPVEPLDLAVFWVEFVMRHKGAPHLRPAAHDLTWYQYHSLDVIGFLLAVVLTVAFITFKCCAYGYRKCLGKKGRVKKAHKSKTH
Experimental: (§1) UGT reaction screening of tectorigenin and irigenin was conducted using nine commercially available human UGTs (UGT1A1/1A3/1A4/1A6/1A9/2B4/2B7/2B15/2B17). Furthermore, we studied the enzymatic kinetic characteristics of tectorigenin and irigenin using UGT1A1 and UGT1A9. Six concentrations of tectorigenin and irigenin (1, 3, 10, 30, 100, and 300 μM) were incubated in triplicate in order to obtain the enzyme kinetic characteristics of tectorigenin and irigenin glucuronide.

[2] = target: T2, UGT1A9 (Homo sapiens, UniProt O60656); experiment: Recombinant UGT reaction screening and enzyme kinetics, UGT1A9; settings: recombinant UGT1A9 screening
T2 construct: purchased BD Biosciences (Woburn, MA, USA)
T2 sequence (O60656 26-530): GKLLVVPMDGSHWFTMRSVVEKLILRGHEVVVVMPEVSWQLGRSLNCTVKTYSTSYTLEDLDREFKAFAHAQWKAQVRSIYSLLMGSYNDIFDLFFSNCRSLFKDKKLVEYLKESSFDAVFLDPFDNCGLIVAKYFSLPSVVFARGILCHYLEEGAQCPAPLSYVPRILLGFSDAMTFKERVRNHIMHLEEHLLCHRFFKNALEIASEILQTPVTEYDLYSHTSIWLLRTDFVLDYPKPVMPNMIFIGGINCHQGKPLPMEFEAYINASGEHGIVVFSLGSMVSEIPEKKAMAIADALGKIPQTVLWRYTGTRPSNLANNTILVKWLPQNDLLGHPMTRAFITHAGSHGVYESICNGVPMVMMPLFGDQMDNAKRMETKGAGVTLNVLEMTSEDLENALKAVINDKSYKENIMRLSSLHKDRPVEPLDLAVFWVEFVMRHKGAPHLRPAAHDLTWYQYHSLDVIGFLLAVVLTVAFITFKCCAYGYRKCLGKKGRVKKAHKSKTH
Experimental: as §1
For both HLMs and UGTs, metabolic kinetic analysis was performed by fitting the data to the Michaelis-Menten model. The Km and Vmax of enzymes were calculated as follows:(3) V=Vmax×[S]/Km+[S], where [S] is the substrate concentration. All results were shown as the mean ± standard error (SE). Differences among different groups were compared using one-way analysis of variance. A p-value < 0.05 was considered statistically significant.

[3] = target: T3, UGT2B7 (Homo sapiens, UniProt P16662); experiment: Recombinant UGT reaction screening, UGT2B7
T3 construct: purchased BD Biosciences (Woburn, MA, USA)
T3 sequence (P16662 24-529): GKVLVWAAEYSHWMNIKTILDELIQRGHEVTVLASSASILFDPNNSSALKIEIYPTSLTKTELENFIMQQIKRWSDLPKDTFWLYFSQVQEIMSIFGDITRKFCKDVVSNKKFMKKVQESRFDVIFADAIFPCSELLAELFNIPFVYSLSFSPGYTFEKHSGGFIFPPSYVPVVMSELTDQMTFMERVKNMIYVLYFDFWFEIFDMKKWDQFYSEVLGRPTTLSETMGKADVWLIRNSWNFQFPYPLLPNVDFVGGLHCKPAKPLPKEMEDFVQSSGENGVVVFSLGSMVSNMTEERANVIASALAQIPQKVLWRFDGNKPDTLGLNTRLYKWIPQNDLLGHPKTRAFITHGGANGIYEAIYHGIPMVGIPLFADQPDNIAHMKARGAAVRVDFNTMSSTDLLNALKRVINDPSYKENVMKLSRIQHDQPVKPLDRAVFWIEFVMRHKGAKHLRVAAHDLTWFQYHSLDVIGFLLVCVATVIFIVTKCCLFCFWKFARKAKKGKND
Experimental: as §1

[4] = target: T4, UGT1A4 (Homo sapiens, UniProt P22310); experiment: Recombinant UGT reaction screening, UGT1A4
T4 construct: purchased BD Biosciences (Woburn, MA, USA)
T4 sequence (P22310 29-534): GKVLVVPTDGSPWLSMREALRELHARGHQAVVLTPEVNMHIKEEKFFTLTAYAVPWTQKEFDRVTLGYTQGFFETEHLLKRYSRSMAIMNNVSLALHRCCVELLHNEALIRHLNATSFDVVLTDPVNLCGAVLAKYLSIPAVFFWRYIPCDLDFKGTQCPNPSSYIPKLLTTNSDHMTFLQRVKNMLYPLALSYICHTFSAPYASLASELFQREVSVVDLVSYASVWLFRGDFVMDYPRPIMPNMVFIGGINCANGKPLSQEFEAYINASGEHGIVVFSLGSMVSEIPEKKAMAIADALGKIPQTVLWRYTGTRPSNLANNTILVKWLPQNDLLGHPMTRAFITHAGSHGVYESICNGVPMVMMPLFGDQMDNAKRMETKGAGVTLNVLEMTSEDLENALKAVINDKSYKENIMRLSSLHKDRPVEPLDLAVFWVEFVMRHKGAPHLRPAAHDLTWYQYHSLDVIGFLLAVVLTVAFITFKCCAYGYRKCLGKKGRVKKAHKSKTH
Experimental: as §1

[5] = target: T5, UGT2B4 (Homo sapiens, UniProt P06133); experiment: Recombinant UGT reaction screening, UGT2B4
T5 construct: purchased BD Biosciences (Woburn, MA, USA)
T5 sequence (P06133 24-528): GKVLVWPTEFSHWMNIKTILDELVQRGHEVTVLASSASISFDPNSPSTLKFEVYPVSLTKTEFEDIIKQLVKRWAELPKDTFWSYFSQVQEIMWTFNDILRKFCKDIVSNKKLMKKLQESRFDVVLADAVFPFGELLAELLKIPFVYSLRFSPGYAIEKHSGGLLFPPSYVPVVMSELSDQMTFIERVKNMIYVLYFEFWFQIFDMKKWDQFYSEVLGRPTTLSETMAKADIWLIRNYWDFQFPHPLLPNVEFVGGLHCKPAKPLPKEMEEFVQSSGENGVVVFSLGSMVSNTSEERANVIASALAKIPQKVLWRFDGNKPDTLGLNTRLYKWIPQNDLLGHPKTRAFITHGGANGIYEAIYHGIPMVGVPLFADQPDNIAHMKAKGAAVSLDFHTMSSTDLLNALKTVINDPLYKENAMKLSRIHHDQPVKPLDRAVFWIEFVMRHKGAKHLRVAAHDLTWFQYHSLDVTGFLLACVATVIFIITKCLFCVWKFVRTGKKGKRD
Experimental: as §1

- Activity in glucuronidation of tectorigenin [1]: some activity
- Activity in glucuronidation of tectorigenin [2]: highest activity
- Activity in glucuronidation of tectorigenin [3]: some activity
- Activity in glucuronidation of tectorigenin [4]: some activity
- Activity in glucuronidation of tectorigenin [5]: none
SMILES: COc1c(O)cc2occ(-c3ccc(O)cc3)c(=O)c2c1O [Tectorigenin, 5,7,4′-trihydroxyl-6-methoxyl isoflavone]
